Assay results from patent US10947242B2, “[1,2,4]triazolo[1,5and#8208;A]pyrimidine compounds as PDE2 inhibitors” (Janssen Pharmaceutica NV, priority 2016, dated 2021).
Like-named read-outs stand apart in the source and are kept apart here.

Tests used:
Assay type in all cases: biochemical
[1] = target: T1, Human recombinant PDE10A (hPDE10A) (Homo sapiens, UniProt Q9Y233); assay: In vitro assay PDE10A, human clone (SPA, 3H-cAMP hydrolysis); details: human clone (h), default; for Emax: read-out: hPDE10A2 Emax; for IC50: read-out: hPDE10A2 pIC50 (converted)
T1 construct: His tag (inferred from metal chelate purification); made in house; host or cells: Sf9 insect cells (baculovirus)
T1 sequence (Q9Y233 267-1055): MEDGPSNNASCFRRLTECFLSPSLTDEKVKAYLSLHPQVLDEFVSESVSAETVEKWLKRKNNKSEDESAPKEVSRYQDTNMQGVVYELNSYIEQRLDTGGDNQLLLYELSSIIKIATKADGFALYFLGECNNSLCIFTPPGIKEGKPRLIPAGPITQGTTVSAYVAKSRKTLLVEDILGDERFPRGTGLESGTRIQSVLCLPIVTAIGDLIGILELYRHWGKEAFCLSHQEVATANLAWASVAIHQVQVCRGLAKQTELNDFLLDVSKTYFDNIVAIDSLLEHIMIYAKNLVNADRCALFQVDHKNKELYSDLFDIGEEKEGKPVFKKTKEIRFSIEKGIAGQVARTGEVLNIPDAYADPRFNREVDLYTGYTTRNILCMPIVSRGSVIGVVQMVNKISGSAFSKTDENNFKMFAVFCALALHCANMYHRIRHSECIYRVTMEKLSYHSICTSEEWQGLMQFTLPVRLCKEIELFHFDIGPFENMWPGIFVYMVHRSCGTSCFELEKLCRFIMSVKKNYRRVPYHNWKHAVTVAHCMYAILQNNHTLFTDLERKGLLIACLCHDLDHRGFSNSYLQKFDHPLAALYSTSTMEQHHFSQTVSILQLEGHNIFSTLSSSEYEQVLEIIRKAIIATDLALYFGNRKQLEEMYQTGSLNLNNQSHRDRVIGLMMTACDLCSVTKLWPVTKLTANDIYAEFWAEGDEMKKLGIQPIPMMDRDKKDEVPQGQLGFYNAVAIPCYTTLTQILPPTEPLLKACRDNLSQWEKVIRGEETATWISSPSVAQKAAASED
Method: Rat recombinant PDE10A (rPDE10A2) was expressed in Sf9 cells using a recombinant rPDE10A baculovirus construct. […] Tested compounds were dissolved and diluted in 100% DMSO to a concentration 100 fold of the final concentration in the assay. Human recombinant PDE10A ([…]) was expressed in Sf9 cells using a recombinant hPDE10A baculovirus that was made and amplified in house. […] Compound dilutions (0.4 μl) were added in 384 well plates to 20 μl of incubation buffer (50 mM Tris pH 7.8, 8.3 mM MgCl2, 1.7 mM EGTA). 10 μl of rPDE10A or hPDE10A enzyme in incubation buffer was added and the reaction was started by addition of 10 μl substrate to a final concentration of 60 nM cAMP and 0.008 μCi ^3H-cAMP. The reaction was incubated for 60 minutes at room temperature. […] After sedimentation of the beads during 30 minutes the radioactivity was measured in a Perkin Elmer Topcount scintillation counter and results were expressed as cpm. For blanc values the enzyme was omitted from the reaction and replaced by incubation buffer. Control values were obtained by addition of a final concentration of 1% DMSO instead of compound.

[2] = target: T2, Human recombinant PDE3A (hPDE3A) (Homo sapiens, UniProt Q14432); assay: In vitro assay PDE3A (SPA, 3H-cAMP hydrolysis); details: for IC50: hPDE3B pIC50, read-out: pIC50 (converted); for Emax: read-out: hPDE3B Emax, read-out: Emax;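 on all read-outs here: the method names PDE3A and the table heading PDE3B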
T2 construct: purchased Scottish Biomedical; host or cells: Sf9 insect cells
T2 sequence (Q14432 whole entry): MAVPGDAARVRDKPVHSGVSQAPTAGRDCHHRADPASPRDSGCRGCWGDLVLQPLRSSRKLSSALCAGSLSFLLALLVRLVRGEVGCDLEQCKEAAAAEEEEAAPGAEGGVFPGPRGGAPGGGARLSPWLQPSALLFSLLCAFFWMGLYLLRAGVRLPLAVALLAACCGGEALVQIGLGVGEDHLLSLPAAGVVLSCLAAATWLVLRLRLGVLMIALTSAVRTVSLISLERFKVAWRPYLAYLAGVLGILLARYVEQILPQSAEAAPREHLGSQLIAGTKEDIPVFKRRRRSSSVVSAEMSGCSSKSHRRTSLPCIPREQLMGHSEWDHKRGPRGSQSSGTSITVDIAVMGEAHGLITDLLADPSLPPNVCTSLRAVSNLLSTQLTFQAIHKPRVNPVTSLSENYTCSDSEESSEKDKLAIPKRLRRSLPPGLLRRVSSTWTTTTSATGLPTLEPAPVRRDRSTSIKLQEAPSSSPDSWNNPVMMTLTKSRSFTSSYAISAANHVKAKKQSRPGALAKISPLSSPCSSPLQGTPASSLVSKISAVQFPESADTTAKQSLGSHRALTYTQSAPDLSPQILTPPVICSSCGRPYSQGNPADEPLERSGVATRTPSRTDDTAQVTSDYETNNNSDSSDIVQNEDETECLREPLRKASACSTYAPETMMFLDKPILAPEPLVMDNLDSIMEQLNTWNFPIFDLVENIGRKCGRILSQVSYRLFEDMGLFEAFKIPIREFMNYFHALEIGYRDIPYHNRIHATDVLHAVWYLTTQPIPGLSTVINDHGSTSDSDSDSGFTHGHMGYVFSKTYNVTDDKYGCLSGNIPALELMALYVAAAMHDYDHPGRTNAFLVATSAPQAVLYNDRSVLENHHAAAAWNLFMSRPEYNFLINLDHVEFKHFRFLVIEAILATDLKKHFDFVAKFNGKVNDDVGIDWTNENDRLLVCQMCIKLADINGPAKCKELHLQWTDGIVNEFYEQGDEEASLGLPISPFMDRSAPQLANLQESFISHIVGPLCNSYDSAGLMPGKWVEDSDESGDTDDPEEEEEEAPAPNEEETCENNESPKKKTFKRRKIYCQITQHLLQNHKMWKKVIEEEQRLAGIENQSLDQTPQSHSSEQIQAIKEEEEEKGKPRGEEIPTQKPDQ
Method: Human recombinant PDE3A (hPDE3A) was supplied as a partially purified insect cell lysate by Scottish Biomedical, it was cloned from human brain and expressed in Sf9 cells. Tested compounds were dissolved and diluted in 100% DMSO to a concentration 100 fold of the final concentration in the assay. Compound dilutions (0.4 μl) were added in 384 well plates to 20 μl of incubation buffer (50 mM Tris pH 7.8, 8.3 mM MgCl2, 1.7 mM EGTA). 10 μl of hPDE3A enzyme in incubation buffer was added and the reaction was started by addition of 10 μl substrate to a final concentration of 0.4 μM cAMP and 2.4 μCi/ml [^3H]-cAMP. The reaction was incubated for 60 min at room temperature. […] After sedimentation of the beads during 30 min the radioactivity was measured in a Perkin Elmer Topcount scintillation counter and results were expressed as cpm. For blanc values the enzyme was omitted from the reaction and replaced by incubation buffer. Control values were obtained by addition of a final concentration of 1% DMSO instead of compound.

[3] = target: T3, Human recombinant PDE2A (hPDE2A) (Homo sapiens, UniProt O00408); assay: In vitro assay PDE2A (SPA, 3H-cGMP hydrolysis); details: for IC50: read-out: hPDE2A pIC50 (converted); for Emax: read-out: hPDE2A Emax
T3 construct: His tag (inferred from metal chelate purification); made in house; host or cells: Sf9 insect cells (baculovirus)
T3 sequence (O00408 whole entry): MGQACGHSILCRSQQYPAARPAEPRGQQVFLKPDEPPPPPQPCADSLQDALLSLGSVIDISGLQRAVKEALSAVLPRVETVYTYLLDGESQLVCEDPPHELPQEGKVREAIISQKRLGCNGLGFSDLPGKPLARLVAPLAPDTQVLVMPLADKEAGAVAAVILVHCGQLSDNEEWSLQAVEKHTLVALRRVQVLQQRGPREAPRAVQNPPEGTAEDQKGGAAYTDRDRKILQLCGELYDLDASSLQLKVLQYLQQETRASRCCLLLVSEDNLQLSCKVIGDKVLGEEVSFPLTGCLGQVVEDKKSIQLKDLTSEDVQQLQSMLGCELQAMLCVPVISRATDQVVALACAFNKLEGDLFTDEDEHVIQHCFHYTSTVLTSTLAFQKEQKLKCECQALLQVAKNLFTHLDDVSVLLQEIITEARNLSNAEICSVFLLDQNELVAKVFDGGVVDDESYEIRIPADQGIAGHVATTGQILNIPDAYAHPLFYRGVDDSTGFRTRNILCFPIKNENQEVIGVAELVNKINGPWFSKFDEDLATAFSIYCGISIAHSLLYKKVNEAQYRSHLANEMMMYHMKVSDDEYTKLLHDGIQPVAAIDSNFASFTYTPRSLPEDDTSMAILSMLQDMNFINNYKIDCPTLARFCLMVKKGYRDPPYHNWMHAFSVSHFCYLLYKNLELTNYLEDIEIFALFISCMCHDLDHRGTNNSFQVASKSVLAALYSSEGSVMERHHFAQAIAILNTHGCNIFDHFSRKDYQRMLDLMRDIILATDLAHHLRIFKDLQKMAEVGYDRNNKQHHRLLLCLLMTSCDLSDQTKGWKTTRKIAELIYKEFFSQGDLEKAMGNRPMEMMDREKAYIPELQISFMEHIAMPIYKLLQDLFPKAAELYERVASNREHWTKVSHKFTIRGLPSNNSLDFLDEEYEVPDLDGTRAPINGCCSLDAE

[4] = human recombinant PDE2A, 10 μM cGMP substrate

hPDE10A2 Emax [1] | hPDE10A2 pIC50 [1] | hPDE3B Emax [2] | hPDE2A Emax [3] | hPDE2A pIC50 [3] | hPDE2A Emax ([3]; human recombinant PDE2A) | hPDE2A pIC50 [3, 4] | Emax [1] | IC50 [1] | IC50 [2] | Emax [2] | IC50 [3, 4] | Emax ([3]; human recombinant PDE2A) | Emax [3] | IC50 [3] | SMILES
95 | 6.63 | 41 | 98 | 8.17 | 98 | 8.17 |  |  |  |  |  |  |  |  | Cc1cc(C(=O)N2CC[C@H](C)[C@@H](c3cc(C#N)nc4ncnn34)C2)cc(C)n1 [Compound 26b]
 |  |  |  |  |  |  | 28% | > 10 µM | > 10 µM | 31% | 1.95 µM | 88% | 88% | 1.95 µM | C[C@H]1CCN(C(=O)c2ccc3ncsc3c2)C[C@]1(F)c1cc(C(F)F)nc2ncnn12 [Compound 34]
 |  |  |  |  |  |  | 83% | 1.78 µM | > 10 µM | 41% | 0.0126 µM | 101% | 101% | 0.0126 µM | C[C@@H]1CCN(C(=O)c2ccnc(Cl)c2F)C[C@H]1c1cc(C(F)F)nc2ncnn12 [Compound 55]
 |  |  |  |  |  |  | 78% | 3.16 µM | > 10 µM | 21% | 0.0275 µM | 100% | 100% | 0.0275 µM | C[C@@H]1CCN(C(=O)c2ccnn2C)C[C@H]1c1cc(C(F)F)nc2ncnn12 [Compound 57]
 |  |  |  |  |  |  | 69% | 4.47 µM | > 10 µM | 18% | 0.0245 µM | 99% | 99% | 0.0245 µM | C[C@@H]1CCN(C(=O)c2cn(C)cn2)C[C@H]1c1cc(C(F)F)nc2ncnn12 [Compound 58]
 |  |  |  |  |  |  | 92% | 0.457 µM | > 10 µM | 45% | 0.00437 µM | 101% | 101% | 0.00437 µM | CC(C)c1n[nH]cc1C(=O)N1CC[C@@H](C)[C@H](c2cc(C(F)F)nc3ncnn23)C1 [Compound 61]
 |  |  |  |  |  |  | 89% | 0.871 µM | 6.92 µM | 60% | 0.00724 µM | 100% | 100% | 0.00724 µM | C[C@@H]1CCN(C(=O)c2cccc3c2OC(F)(F)O3)C[C@H]1c1cc(C(F)F)nc2ncnn12 [Compound 63]
 |  |  |  |  |  |  | 95% | 0.251 µM | 6.76 µM | 70% | 0.00126 µM | 100% | 100% | 0.00126 µM | Cc1cc(C(=O)N2CC[C@@H](C)[C@H](c3cc(C(F)F)nc4ncnn34)C2)c(C)s1 [Compound 65]
 |  |  |  |  |  |  | 94% | 0.288 µM | > 10 µM | 49% | 0.00257 µM | 99% | 99% | 0.00257 µM | C[C@@H]1CCN(C(=O)c2ccn(C)c2)C[C@H]1c1cc(C(F)F)nc2ncnn12 [Compound 67]
 |  |  |  |  |  |  | 27% | > 10 µM | > 10 µM | 22% | 2.95 µM | 81% | 81% | 2.95 µM | COc1c(C)cc(C(=O)N2CC[C@@H](C)[C@@](F)(c3cc(C(F)F)nc4ncnn34)C2)cc1C [Compound 75]
 |  |  |  |  |  |  | 1% | > 10 µM | > 10 µM | 17% | 7.08 µM | 59% | 59% | 7.08 µM | Cc1cc(C(=O)N2CC[C@@H](C)[C@@](F)(c3cc(C(F)F)nc4ncnn34)C2)cc(C)n1 [Compound 81]
 |  |  |  |  |  |  | 69% | 4.57 µM | > 10 µM | 11% | 0.214 µM | 98% | 98% | 0.214 µM | C[C@@H]1CCN(C(=O)c2cocn2)C[C@H]1c1cc(C(F)F)nc2ncnn12 [Compound 87]
 |  |  |  |  |  |  | 99% | 0.00398 µM | 0.389 µM | 97% | 0.000209 µM | 101% | 101% | 0.000209 µM | C[C@@H]1CCN(C(=O)c2ccc3nc(N)sc3c2)C[C@H]1c1cc(C(F)F)nc2ncnn12 [Compound 88]
 |  |  |  |  |  |  | 98% | 0.0245 µM | 1.32 µM | 88% | 0.000398 µM | 100% | 100% | 0.000398 µM | Cc1coc2ccc(C(=O)N3CC[C@@H](C)[C@H](c4cc(C(F)F)nc5ncnn45)C3)cc12 [Compound 92]
 |  |  |  |  |  |  | 97% | 0.0117 µM | 0.105 µM | 99% | 0.000501 µM | 101% | 101% | 0.000501 µM | C[C@@H]1CCN(C(=O)c2cc3ccc(C(F)(F)F)cc3[nH]2)C[C@H]1c1cc(C(F)F)nc2ncnn12 [Compound 94]
 |  |  |  |  |  |  | 98% | 0.0398 µM | 0.603 µM | 94% | 0.000603 µM | 100% | 100% | 0.000603 µM | C[C@@H]1CCN(C(=O)c2cc(-c3ccco3)nn2C)C[C@H]1c1cc(C(F)F)nc2ncnn12 [Compound 98]
 |  |  |  |  |  |  | 100% | 0.0162 µM | 0.269 µM | 99% | 0.000661 µM | 101% | 101% | 0.000661 µM | Cc1csc2ccc(C(=O)N3CC[C@@H](C)[C@H](c4cc(C(F)F)nc5ncnn45)C3)nc12 [Compound 100]
 |  |  |  |  |  |  | 98% | 0.0741 µM | 0.513 µM | 92% | 0.000813 µM | 100% | 100% | 0.000813 µM | C[C@@H]1CCN(C(=O)c2ccc3ncoc3c2)C[C@H]1c1cc(C(F)F)nc2ncnn12 [Compound 104]
 |  |  |  |  |  |  | 101% | 0.0295 µM | 1.35 µM | 90% | 0.000871 µM | 101% | 101% | 0.000871 µM | COc1cccc2cc(C(=O)N3CC[C@@H](C)[C@H](c4cc(C(F)F)nc5ncnn45)C3)oc12 [Compound 105]
 |  |  |  |  |  |  | 99% | 0.0479 µM | 1.78 µM | 84% | 0.001 µM | 101% | 101% | 0.001 µM | C[C@@H]1CCN(C(=O)c2c[nH]c3ccc(F)cc23)C[C@H]1c1cc(C(F)F)nc2ncnn12 [Compound 112]
 |  |  |  |  |  |  | 99% | 0.038 µM | 1.12 µM | 88% | 0.001 µM | 99% | 99% | 0.001 µM | COc1cc(C(=O)N2CC[C@@H](C)[C@H](c3cc(C(F)F)nc4ncnn34)C2)cc(C2CC2)n1 [Compound 113]
 |  |  |  |  |  |  | 101% | 0.0457 µM | 0.0891 µM | 98% | 0.00105 µM | 100% | 100% | 0.00105 µM | C[C@@H]1CCN(C(=O)c2cc3ccccc3n2C)C[C@H]1c1cc(C(F)F)nc2ncnn12 [Compound 114]
 |  |  |  |  |  |  | 99% | 0.0776 µM | 0.0617 µM | 101% | 0.00174 µM | 100% | 100% | 0.00174 µM | Cc1c(C(=O)N2CC[C@@H](C)[C@H](c3cc(C(F)F)nc4ncnn34)C2)sc2ccccc12 [Compound 119]
 |  |  |  |  |  |  | 98% | 0.155 µM | 0.933 µM | 90% | 0.00229 µM | 100% | 100% | 0.00229 µM | COc1c(F)cc(C(=O)N2CC[C@@H](C)[C@H](c3cc(C(F)F)nc4ncnn34)C2)cc1F [Compound 128]

SMILES | hPDE10A2 Emax [1] | hPDE10A2 pIC50 [1] | hPDE3B Emax [2] | hPDE2A Emax [3] | hPDE2A pIC50 [3] | hPDE2A Emax ([3]; human recombinant PDE2A) | hPDE2A pIC50 [3, 4] | Emax [1] | IC50 [1] | IC50 [2] | Emax [2] | IC50 [3, 4] | Emax ([3]; human recombinant PDE2A) | Emax [3] | IC50 [3]
Cc1cc(C(=O)N2[C@H]3CC[C@@H]2[C@H](c2cc(C(F)F)nc4ncnn24)CC3)c(F)cn1 [Compound 62] |  |  |  |  |  |  |  | 36% | > 10 µM | > 10 µM | 8% |  |  | 77% | 3.02 µM
Cc1cc(C(=O)N2[C@H]3CC[C@H](c4cc(C(F)F)nc5ncnn45)[C@@H]2CC3)c(F)cn1 [Compound 86] |  |  |  |  |  |  |  | 40% | > 10 µM | > 10 µM | 34% |  |  | 100% | 0.0501 µM
